Source: ChEMBL document CHEMBL5465560, “Selectivity Literature for EUbOPEN Chemogenomic Library” (2024)

Key:
[1] = test system: Epidermal growth factor receptor (Homo sapiens), P00533 [L861Q]; test: (§1) Selectivity interaction (Kinase panel (Z-LYTE Assay)) EUB0001632a EGFR; settings: at 10 µM
[2] = test system: Epidermal growth factor receptor (Homo sapiens), P00533 [L858R]; test: as §1; settings: at 10 µM
[3] = test system: Epidermal growth factor receptor (Homo sapiens), P00533 [L858R,T790M]; test: as §1; settings: at 10 µM
[4] = biological target: Epidermal growth factor receptor (Homo sapiens, UniProt P00533); test: as §1; settings: at 10 µM
[5] = test system: Epidermal growth factor receptor (Homo sapiens), P00533 [T790M]; test: as §1; settings: at 10 µM
[6] = biological target: Mitogen-activated protein kinase 14 (Homo sapiens, UniProt Q16539); test: Selectivity interaction (Kinase panel (Z-LYTE Assay)) EUB0001632a MAPK14; settings: at 10 µM
Mitogen-activated protein kinase 14, sequence (Q16539 whole entry): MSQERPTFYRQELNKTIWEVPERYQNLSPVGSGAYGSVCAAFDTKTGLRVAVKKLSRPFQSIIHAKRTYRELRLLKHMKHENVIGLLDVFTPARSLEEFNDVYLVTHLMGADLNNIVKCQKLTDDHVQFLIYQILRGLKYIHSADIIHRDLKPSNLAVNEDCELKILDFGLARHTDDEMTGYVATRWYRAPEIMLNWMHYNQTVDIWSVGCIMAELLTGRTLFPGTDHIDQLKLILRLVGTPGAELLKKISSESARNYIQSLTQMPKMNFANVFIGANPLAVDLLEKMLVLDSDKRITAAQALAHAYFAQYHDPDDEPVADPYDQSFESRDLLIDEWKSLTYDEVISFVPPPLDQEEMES

[7] = biological target: Receptor tyrosine-protein kinase erbB-3 (Homo sapiens) (UniProt P21860); test: Selectivity interaction (KinomeScan (DiscoverX)) EUB0000666a ERBB3; settings: at 10 µM
[8] = test system: Phosphatidylinositol 4,5-bisphosphate 3-kinase catalytic subunit alpha isoform (Homo sapiens), P42336 [H1047Y]; settings: at 10 µM
Phosphatidylinositol 4,5-bisphosphate 3-kinase catalytic subunit alpha isoform (Homo sapiens), P42336 [H1047Y], sequence (P42336 whole entry H1047Y, canonical isoform): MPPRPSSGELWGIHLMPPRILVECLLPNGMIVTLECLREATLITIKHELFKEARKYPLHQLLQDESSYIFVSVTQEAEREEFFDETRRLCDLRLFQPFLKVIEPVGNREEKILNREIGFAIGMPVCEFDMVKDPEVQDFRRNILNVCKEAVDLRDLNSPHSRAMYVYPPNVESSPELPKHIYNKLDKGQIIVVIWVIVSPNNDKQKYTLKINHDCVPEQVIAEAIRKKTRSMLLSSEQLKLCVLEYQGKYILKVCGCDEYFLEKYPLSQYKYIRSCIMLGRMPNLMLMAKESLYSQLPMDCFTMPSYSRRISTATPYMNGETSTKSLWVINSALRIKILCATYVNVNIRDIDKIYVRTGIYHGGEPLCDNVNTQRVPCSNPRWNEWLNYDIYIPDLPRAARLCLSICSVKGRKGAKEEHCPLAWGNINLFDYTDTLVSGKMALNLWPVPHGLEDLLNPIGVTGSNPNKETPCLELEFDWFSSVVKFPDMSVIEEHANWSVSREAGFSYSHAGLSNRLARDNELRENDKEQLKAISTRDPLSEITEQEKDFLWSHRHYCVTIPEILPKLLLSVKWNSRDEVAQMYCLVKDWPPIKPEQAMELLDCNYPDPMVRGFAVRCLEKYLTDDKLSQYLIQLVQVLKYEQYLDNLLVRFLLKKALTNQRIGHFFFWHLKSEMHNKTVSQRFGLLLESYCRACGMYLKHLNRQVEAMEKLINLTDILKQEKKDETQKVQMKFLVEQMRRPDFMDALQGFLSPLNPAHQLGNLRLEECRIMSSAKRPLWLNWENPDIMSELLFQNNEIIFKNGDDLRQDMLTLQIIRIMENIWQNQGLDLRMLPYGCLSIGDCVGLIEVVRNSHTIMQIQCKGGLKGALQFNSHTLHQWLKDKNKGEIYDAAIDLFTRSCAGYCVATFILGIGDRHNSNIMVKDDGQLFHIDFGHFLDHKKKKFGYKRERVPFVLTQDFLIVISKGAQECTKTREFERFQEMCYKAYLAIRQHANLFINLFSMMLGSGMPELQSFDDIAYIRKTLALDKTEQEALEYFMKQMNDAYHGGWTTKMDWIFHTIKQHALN

[9] = test system: Tyrosine-protein kinase ABL1 (Homo sapiens), P00519 [M351T]; settings: at 10 µM
[10] = biological target: T1, SNF-related serine/threonine-protein kinase (Homo sapiens) (UniProt Q9NRH2); test: Selectivity interaction (ActivX KiNativ screen (kinase selectivity in THP-1 cell lysates)) EUB0000639a SNRK; assay type: subcellular; settings: lysate
T1 sequence (whole entry): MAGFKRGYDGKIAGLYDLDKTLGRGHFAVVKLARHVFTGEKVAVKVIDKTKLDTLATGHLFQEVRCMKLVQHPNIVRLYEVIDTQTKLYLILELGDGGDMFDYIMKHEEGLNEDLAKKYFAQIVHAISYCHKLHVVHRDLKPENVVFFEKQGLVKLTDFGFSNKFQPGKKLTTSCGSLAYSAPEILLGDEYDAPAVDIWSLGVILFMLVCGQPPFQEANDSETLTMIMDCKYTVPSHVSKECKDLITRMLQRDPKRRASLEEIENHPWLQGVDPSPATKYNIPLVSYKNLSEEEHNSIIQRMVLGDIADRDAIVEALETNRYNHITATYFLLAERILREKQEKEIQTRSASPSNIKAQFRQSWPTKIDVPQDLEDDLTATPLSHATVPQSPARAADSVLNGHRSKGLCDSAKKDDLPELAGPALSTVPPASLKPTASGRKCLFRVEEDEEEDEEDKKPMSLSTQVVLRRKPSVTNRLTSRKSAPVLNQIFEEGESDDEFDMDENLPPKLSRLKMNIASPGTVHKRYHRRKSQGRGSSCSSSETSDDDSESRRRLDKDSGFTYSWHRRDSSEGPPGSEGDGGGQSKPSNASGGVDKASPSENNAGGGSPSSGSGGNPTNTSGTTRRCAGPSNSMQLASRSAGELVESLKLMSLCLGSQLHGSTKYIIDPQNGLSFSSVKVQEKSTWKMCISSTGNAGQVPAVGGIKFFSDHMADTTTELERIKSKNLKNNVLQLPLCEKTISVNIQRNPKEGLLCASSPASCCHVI

[11] = biological target: RAF proto-oncogene serine/threonine-protein kinase (Homo sapiens) (UniProt P04049); test: Selectivity interaction (Kinase screening (Upstate/Millipore)) EUB0000604a RAF1
RAF proto-oncogene serine/threonine-protein kinase (Homo sapiens), sequence (P04049 whole entry): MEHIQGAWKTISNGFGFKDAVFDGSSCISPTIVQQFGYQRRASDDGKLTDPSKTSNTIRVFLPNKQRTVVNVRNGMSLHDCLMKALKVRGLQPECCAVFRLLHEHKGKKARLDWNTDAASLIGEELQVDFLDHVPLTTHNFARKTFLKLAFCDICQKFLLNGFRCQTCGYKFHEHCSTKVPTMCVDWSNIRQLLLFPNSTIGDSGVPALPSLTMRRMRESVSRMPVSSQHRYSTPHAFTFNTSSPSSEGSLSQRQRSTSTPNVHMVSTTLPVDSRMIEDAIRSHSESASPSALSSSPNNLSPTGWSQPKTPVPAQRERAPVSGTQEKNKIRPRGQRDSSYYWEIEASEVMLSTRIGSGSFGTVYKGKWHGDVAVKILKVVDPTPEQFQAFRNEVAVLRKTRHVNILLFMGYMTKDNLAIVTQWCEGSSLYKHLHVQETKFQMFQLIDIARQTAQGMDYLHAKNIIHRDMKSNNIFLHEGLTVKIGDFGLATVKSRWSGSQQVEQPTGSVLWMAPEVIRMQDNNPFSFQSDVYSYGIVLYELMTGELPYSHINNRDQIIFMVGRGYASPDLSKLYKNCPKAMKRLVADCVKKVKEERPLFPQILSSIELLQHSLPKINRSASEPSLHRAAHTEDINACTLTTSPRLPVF

[12] = biological target: T2, Tyrosine-protein kinase JAK3 (Homo sapiens) (UniProt P52333); test: Selectivity interaction (KinomeScan (DiscoverX)) EUB0000655a JAK3; settings: at 10 µM
T2 sequence (whole entry): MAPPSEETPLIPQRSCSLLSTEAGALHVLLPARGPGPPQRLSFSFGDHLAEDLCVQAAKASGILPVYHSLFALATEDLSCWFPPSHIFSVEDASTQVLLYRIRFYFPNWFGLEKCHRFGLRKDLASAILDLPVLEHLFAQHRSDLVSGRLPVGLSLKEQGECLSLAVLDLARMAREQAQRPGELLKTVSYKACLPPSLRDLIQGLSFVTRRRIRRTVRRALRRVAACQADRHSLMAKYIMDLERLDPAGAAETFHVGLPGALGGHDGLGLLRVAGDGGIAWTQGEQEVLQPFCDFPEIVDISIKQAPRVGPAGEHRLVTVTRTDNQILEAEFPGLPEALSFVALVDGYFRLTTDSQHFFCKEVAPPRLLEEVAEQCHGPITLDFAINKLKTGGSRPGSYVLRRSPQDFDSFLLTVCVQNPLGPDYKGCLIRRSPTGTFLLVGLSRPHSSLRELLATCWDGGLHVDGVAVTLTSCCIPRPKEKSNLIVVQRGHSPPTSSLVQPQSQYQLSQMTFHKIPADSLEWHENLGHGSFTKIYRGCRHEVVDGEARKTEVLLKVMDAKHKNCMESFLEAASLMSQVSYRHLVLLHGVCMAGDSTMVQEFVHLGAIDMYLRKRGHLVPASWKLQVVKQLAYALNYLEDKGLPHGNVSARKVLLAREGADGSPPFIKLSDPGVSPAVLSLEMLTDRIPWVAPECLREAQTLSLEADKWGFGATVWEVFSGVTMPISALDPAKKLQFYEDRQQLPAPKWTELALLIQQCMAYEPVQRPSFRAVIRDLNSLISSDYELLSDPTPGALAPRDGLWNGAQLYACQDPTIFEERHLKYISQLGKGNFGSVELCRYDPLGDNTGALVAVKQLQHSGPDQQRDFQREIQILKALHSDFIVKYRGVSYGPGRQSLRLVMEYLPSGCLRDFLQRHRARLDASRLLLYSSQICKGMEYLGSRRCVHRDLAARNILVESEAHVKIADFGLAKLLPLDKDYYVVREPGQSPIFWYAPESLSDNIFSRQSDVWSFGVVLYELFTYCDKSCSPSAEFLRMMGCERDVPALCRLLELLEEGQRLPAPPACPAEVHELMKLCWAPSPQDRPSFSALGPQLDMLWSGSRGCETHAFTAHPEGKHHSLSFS

[13] = biological target: Histone-lysine N-methyltransferase 2A (Homo sapiens) (UniProt Q03164); settings: at 1 µM
[14] = biological target: Mitogen-activated protein kinase 3 (Homo sapiens, UniProt P27361); test: Selectivity interaction (KinomeScan (DiscoverX)) EUB0000229b MAPK3; settings: at 10 µM
Mitogen-activated protein kinase 3, sequence (P27361 whole entry): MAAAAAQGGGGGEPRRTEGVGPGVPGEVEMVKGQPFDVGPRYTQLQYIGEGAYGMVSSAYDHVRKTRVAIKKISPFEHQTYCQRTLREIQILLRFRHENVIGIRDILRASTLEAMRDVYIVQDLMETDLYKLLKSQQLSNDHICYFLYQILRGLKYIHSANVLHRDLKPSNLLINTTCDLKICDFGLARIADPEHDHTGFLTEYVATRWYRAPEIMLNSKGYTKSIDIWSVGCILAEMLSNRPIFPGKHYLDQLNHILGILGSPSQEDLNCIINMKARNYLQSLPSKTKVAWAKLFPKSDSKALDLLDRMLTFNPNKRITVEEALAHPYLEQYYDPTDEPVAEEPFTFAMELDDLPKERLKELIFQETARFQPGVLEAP

[15] = biological target: Tyrosine-protein kinase receptor Tie-1 (Homo sapiens) (UniProt P35590); test: Selectivity interaction (KinomeScan (DiscoverX)) EUB0000229b TIE1; settings: at 10 µM
Tyrosine-protein kinase receptor Tie-1 (Homo sapiens), sequence (P35590 whole entry): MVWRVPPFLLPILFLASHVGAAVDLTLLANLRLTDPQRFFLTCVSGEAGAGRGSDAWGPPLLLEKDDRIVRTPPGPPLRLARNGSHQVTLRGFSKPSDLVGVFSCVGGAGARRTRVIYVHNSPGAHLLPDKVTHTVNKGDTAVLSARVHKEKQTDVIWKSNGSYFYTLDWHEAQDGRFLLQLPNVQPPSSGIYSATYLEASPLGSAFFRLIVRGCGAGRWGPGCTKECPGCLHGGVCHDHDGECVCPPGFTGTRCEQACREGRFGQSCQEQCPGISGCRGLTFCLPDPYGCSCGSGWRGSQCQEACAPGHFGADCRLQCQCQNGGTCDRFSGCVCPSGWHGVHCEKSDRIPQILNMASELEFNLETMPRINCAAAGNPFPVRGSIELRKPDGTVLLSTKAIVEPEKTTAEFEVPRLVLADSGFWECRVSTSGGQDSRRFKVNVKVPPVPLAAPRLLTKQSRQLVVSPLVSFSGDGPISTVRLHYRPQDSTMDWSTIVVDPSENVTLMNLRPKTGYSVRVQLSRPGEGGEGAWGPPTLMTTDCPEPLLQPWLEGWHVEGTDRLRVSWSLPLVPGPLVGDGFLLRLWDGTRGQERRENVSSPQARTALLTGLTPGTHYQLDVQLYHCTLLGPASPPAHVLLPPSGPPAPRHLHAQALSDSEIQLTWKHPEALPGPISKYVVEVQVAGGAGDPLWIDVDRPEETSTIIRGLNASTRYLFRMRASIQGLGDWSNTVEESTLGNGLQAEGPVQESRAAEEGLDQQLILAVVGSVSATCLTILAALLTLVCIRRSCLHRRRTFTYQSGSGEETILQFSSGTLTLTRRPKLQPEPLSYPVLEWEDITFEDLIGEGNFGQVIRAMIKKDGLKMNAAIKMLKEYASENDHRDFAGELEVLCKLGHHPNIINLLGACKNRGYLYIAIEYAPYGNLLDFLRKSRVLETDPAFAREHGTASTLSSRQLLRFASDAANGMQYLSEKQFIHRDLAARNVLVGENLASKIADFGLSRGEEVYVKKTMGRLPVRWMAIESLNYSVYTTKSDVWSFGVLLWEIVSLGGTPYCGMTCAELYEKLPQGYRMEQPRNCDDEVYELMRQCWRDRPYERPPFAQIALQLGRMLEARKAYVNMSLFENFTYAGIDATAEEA

Epidermal growth factor receptor (Homo sapiens), P00533 [L858R], sequence (P00533 whole entry L858R): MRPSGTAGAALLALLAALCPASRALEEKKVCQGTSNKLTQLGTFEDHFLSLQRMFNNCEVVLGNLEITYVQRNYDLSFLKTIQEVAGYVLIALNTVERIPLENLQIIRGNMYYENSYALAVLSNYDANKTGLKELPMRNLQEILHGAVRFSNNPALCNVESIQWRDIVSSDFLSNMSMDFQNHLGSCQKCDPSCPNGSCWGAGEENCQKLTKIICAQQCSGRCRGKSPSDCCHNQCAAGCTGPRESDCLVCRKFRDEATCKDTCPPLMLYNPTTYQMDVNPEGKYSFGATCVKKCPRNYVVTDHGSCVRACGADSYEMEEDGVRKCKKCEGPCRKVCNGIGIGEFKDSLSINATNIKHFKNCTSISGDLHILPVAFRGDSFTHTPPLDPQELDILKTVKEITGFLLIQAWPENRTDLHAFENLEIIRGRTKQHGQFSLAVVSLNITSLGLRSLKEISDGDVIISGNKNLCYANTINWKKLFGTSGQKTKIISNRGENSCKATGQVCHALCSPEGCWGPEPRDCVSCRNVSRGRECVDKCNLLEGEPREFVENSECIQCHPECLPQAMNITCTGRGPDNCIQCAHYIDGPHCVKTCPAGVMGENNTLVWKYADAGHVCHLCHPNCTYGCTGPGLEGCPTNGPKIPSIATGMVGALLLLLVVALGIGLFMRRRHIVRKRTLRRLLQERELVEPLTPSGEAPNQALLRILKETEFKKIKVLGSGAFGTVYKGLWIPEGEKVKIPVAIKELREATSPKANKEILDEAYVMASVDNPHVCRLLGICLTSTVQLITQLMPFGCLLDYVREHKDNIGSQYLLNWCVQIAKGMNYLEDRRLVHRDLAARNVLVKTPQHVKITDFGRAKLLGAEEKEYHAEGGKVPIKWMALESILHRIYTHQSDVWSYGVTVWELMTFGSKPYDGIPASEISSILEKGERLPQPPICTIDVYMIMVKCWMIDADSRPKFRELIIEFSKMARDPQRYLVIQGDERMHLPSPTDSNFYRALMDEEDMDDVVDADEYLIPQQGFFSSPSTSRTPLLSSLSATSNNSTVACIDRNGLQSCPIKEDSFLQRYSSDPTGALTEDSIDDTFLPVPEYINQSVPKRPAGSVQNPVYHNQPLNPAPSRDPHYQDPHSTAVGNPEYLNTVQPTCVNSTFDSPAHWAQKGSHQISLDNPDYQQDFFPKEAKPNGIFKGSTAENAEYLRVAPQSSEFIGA

Cn1cc(-n2cnc3c(NCc4nc5cc(Cl)c(Cl)cc5[nH]4)nc(N4CCOCC4)nc32)cn1
% of control [1]: 9.07%
% of control [2]: 3.58%
% of control [3]: 5.81%
% of control [4]: 3.08%
% of control [5]: 1.29%
% of control [6]: -3.84%

O=C(NOC[C@H](O)CO)c1ccc(F)c(F)c1Nc1ccc(I)cc1F
% of control [7]: 100%

CNC(=O)Nc1ccc(-c2nc(N3CC4CCC(C3)O4)c3cnn(C4CCC5(CC4)OCCO5)c3n2)cc1
% of control [8]: 9.6%

CCN(CC)CCCCNc1ncc2cc(-c3cc(OC)cc(OC)c3)c(NC(=O)NC(C)(C)C)nc2n1
% of control [9]: 100%

CC[C@@H]1[C@H](F)C(=O)N[C@@H]1COc1nccc2cc(C(N)=O)c(OC)cc12 [ZIMLOVISERTIB]
% of inhibition ([10]; at 0.01 µM): -4.2%
% of inhibition ([10]; at 0.04 µM): 1.9%
% of inhibition ([10]; at 0.2 µM): 21.5%
% of inhibition ([10]; at 1 µM): 3.6%
% of inhibition ([10]; at 5 µM): 23.9%

Cc1cnc(Nc2ccc(F)cc2Cl)nc1-c1c[nH]c(C(=O)N[C@H](CO)c2cccc(Cl)c2)c1
% of inhibition [11]: 3%

CN(C)CCOc1ccc(-c2nc(-c3ccncc3)c(-c3ccc4c(c3)CC/C4=N\O)[nH]2)cc1
% of control [12]: 93%

CNCCN1CCC(c2cc(CN(C)C(=O)c3cccc(Oc4ccccc4)c3)ccn2)CC1
% activity [13]: > 90%

COc1cc(N(C)c2ccnc3ccc(C(F)(F)F)cc23)cc(OC)c1OC
% binding [14]: 100%
% binding [15]: 75%
